In ChEMBL document CHEMBL5528022, “Discovery of a brain-permeable bromodomain and extra terminal domain (BET) inhibitor with selectivity for BD1 for the treatment of multiple sclerosis” (Eur J Med Chem, 2024):
In brackets after ≈: the same amount, converted by molar mass. Values belong to the compound of their own block, whether it stands above or below them. Activity calls are given as the source filed them. No cut-off for these calls is given here.

Assays:
[1] = target: T1, Bromodomain-containing protein 4 (Homo sapiens, UniProt O60885); assay: Binding affinity to BRD4 BD1 (unknown origin) expressed in Escherichia coli BL21 (DE3) at 1:1 protein:compound ratio by MST assay
[2] = target: T1, Bromodomain-containing protein 4; assay: Binding affinity to BRD4 BD2 (unknown origin) expressed in Escherichia coli BL21 (DE3) at 1:1 protein:compound ratio by MST assay
[3] = Selectivity ratio of Kd for binding affinity to BRD4 BD2 (unknown origin) by MST assay to Kd for binding affinity to BRD4 BD1 (unknown origin) by MST assay
[4] = target: T1, Bromodomain-containing protein 4; assay: Binding affinity to BRD4 BD1 (unknown origin) expressed in Escherichia coli BL21 (DE3) by ITC assay
[5] = target: T1, Bromodomain-containing protein 4; assay: Binding affinity to BRD4 BD2 (unknown origin) expressed in Escherichia coli BL21 (DE3) by ITC assay
[6] = Selectivity ratio of Kd for binding affinity to BRD4 BD2 (unknown origin) by ITC assay to Kd for binding affinity to BRD4 BD1 (unknown origin) by ITC assay
[7] = target: T1, Bromodomain-containing protein 4; assay: Binding affinity to BRD4 BD1 (unknown origin) assessed as change in enthalpy by ITC method
[8] = target: T1, Bromodomain-containing protein 4; assay: Binding affinity to BRD4 BD1 (unknown origin) assessed as change in entropy by ITC method
[9] = target: T1, Bromodomain-containing protein 4; assay: Binding affinity to BRD4 BD1 (unknown origin) assessed as change in gibbs free energy by ITC method
[10] = target: T1, Bromodomain-containing protein 4; assay: Inhibition of BRD4 BD1 (unknown origin) incubated for 15 mins by HTRF method
[11] = target: T1, Bromodomain-containing protein 4; assay: Inhibition of BRD4 BD2 (unknown origin) incubated for 15 mins by HTRF method
[12] = target: T2, Bromodomain-containing protein 3 (Homo sapiens, UniProt Q15059); assay: Inhibition of BRD3 BD1 (unknown origin) incubated for 15 mins by HTRF method
T2 sequence (Q15059 whole entry): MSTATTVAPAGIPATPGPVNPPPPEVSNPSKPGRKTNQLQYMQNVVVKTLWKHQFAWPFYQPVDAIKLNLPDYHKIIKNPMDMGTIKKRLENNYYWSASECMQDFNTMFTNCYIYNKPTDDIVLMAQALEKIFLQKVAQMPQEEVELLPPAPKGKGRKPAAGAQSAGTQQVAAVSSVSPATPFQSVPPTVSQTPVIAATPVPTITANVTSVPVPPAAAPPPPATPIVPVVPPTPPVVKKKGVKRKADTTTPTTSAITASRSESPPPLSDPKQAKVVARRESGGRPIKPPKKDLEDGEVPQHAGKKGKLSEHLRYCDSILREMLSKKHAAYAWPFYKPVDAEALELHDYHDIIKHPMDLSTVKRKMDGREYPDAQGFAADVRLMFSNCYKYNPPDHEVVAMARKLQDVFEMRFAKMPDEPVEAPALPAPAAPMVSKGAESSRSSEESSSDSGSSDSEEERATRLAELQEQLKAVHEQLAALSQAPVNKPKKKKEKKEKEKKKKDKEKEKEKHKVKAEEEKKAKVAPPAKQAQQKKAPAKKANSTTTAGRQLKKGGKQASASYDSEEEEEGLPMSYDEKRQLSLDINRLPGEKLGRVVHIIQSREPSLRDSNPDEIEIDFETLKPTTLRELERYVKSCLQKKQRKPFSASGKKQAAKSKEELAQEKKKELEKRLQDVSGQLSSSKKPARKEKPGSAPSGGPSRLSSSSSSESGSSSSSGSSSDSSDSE

[13] = target: T2, Bromodomain-containing protein 3; assay: Inhibition of BRD3 BD2 (unknown origin) incubated for 15 mins by HTRF method
[14] = target: T3, Bromodomain-containing protein 2 (Homo sapiens, UniProt P25440); assay: Inhibition of BRD2 BD1 (unknown origin) incubated for 15 mins by HTRF method
T3 sequence (P25440 whole entry): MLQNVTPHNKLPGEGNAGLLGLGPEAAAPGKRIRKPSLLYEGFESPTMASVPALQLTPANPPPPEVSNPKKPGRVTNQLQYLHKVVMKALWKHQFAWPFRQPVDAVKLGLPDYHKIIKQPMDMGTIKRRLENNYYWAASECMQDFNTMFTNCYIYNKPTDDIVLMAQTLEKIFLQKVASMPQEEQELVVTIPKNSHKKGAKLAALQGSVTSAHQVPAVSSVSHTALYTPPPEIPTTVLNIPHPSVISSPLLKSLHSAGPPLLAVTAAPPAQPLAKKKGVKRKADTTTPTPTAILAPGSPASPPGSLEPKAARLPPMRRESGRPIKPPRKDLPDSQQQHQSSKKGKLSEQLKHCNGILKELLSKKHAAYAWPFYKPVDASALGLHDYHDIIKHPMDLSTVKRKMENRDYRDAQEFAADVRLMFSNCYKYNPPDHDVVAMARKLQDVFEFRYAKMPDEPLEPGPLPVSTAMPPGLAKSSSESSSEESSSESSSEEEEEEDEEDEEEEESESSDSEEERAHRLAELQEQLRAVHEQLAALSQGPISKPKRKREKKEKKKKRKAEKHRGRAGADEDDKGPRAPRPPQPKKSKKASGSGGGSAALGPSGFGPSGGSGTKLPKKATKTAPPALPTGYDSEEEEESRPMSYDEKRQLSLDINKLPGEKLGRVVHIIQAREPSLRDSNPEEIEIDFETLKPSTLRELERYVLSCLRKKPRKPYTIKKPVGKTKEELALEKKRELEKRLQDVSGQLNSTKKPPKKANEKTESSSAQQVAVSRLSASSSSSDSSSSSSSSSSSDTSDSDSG

[15] = target: T3, Bromodomain-containing protein 2; assay: Inhibition of BRD2 BD2 (unknown origin) incubated for 15 mins by HTRF method
[16] = target: T4, Bromodomain testis-specific protein (Homo sapiens, UniProt Q58F21); assay: Inhibition of BRDT BD1 (unknown origin) incubated for 15 mins by HTRF method
[17] = target: T4, Bromodomain testis-specific protein; assay: Inhibition of BRDT BD2 (unknown origin) incubated for 15 mins by HTRF method
[18] = Selectivity ratio of IC50 for inhibition of BRD4 BD2 (unknown origin) to IC50 for inhibition of BRD4 BD1 (unknown origin)
[19] = Selectivity ratio of IC50 for inhibition of BRD3 BD2 (unknown origin) to IC50 for inhibition of BRD3 BD1 (unknown origin)
[20] = Selectivity ratio of IC50 for inhibition of BRD2 BD2 (unknown origin) to IC50 for inhibition of BRD2 BD1 (unknown origin)
[21] = Selectivity ratio of IC50 for inhibition of BRDT BD2 (unknown origin) to IC50 for inhibition of BRDT BD1 (unknown origin)
Microglia = assay: Antiinflammatory activity against LPS induced neonatal rat cerebral cortex microglia by immunofluorescence assay; assay type: functional, cell-based
[22] = Solubility in water by HPLC analysis; assay type: physicochemical
[23] = Stability in rat liver microsomes assessed as half life; assay type: ADME, Microsome
[24] = Stability in rat liver microsomes assessed as intrinsic clearance; assay type: ADME, Microsome; details: read-out: CLH
[25] = Lipophilicity, logD of compound at pH 7.4 by LC-MS/MS based shake bottle method; assay type: physicochemical; details: buffer
[26] = Unbound drug level in ICR mouse brain incubated for 5 hrs by equilibrium dialysis method; assay type: ADME, tissue-based
[27] = Free maximum concentration of drug in ICR mouse brain; assay type: ADME, tissue-based
[28] = Cmax in Sprague-Dawley rat at 5 mg/kg, iv measured upto 25 hrs by LC-MS/MS analysis; assay type: ADME, organism-based; details: in vivo
[29] = Half life in Sprague-Dawley rat at 5 mg/kg, iv measured upto 25 hrs by LC-MS/MS analysis; assay type: ADME, organism-based; details: in vivo
[30] = Mean residence time in Sprague-Dawley rat at 5 mg/kg, iv measured upto 25 hrs by LC-MS/MS analysis; assay type: ADME, organism-based; details: in vivo
[31] = Cmax in Sprague-Dawley rat at 25 mg/kg, ip measured upto 25 hrs by LC-MS/MS analysis; assay type: ADME, organism-based; details: in vivo
[32] = Tmax in Sprague-Dawley rat at 25 mg/kg, ip measured upto 25 hrs by LC-MS/MS analysis; assay type: ADME, organism-based; details: in vivo
[33] = Half life in Sprague-Dawley rat at 25 mg/kg, ip measured upto 25 hrs by LC-MS/MS analysis; assay type: ADME, organism-based; details: in vivo
[34] = Mean residence time in Sprague-Dawley rat at 25 mg/kg, ip measured upto 25 hrs by LC-MS/MS analysis; assay type: ADME, organism-based; details: in vivo
[35] = Bioavailability in Sprague-Dawley rat at 25 mg/kg, ip measured upto 25 hrs by LC-MS/MS analysis; assay type: ADME, organism-based; details: in vivo
[36] = Cmax in Sprague-Dawley rat at 25 mg/kg, po measured upto 25 hrs by LC-MS/MS analysis; assay type: ADME, organism-based; details: in vivo
[37] = Tmax in Sprague-Dawley rat at 25 mg/kg, po measured upto 25 hrs by LC-MS/MS analysis; assay type: ADME, organism-based; details: in vivo
[38] = Half life in Sprague-Dawley rat at 25 mg/kg, po measured upto 25 hrs by LC-MS/MS analysis; assay type: ADME, organism-based; details: in vivo
[39] = Mean residence time in Sprague-Dawley rat at 25 mg/kg, po measured upto 25 hrs by LC-MS/MS analysis; assay type: ADME, organism-based; details: in vivo
[40] = Oral bioavailability in Sprague-Dawley rat at 25 mg/kg measured upto 25 hrs by LC-MS/MS analysis; assay type: ADME, organism-based; details: in vivo
[41] = Cmax in C57BL/6 mouse blood at 5 mg/kg, iv measured upto 25 hrs by LC-MS/MS analysis; assay type: ADME, organism-based
[42] = Cmax in C57BL/6 mouse brain at 5 mg/kg, iv measured upto 25 hrs by LC-MS/MS analysis; assay type: ADME, organism-based
[43] = Cmax in C57BL/6 mouse spinal cord at 5 mg/kg, iv measured upto 25 hrs by LC-MS/MS analysis; assay type: ADME, organism-based
[44] = Tmax in C57BL/6 mouse brain at 5 mg/kg, iv measured upto 25 hrs by LC-MS/MS analysis; assay type: ADME, organism-based
[45] = Tmax in C57BL/6 mouse spinal cord at 5 mg/kg, iv measured upto 25 hrs by LC-MS/MS analysis; assay type: ADME, organism-based
Mus musculus [46] = assay: (§1) Anti-inflammatory activity in complete Freund's adjuvant/MOG (35 to 55 residues)/pertussis toxin-induced experimental autoimmune encephalomyelitis C57BL/6 mouse model assessed as reduction in clinical scores at 30 to 60 mg/kg, ip qd administered 6 days post immunization and measured every 3 days for 28 days post immunization; assay type: functional, organism-based; details: dose 30-60 mg/kg, time 22.0 day
Mus musculus [47] = assay: as §1, with “change” for “reduction”, “cumulative” for “clinical”; assay type: functional, organism-based; details: dose 30-60 mg/kg, time 22.0 day
[48] = Toxicity in C57BL/6 mouse model of experimental autoimmune encephalomyelitis assessed as body weight loss at 30 to 60 mg/kg, ip administered 6 days post immunization and measured every 3 days for 28 days post immunization; assay type: organism-based; details: in vivo, 528 h, dose 30-60 mg/kg, time 22 day
[49] = Toxicity in C57BL/6 mouse model of experimental autoimmune encephalomyelitis assessed as animal death at 30 to 60 mg/kg, ip administered 6 days post immunization and measured every 3 days for 28 days post immunization; assay type: organism-based; details: in vivo, 144 h, dose 30-60 mg/kg, time 6 day
Mus musculus [50] = assay: as §1, with “TNF-alpha level” for “clinical scores”; assay type: functional, organism-based; details: dose 30-60 mg/kg, time 22.0 day
Mus musculus [51] = assay: as §1, with “IL-6 level” for “clinical scores”; assay type: functional, organism-based; details: dose 30-60 mg/kg, time 22.0 day
Mus musculus [52] = assay: (§2) Anti-inflammatory activity in complete Freund's adjuvant/MOG (35 to 55 residues)/pertussis toxin-induced experimental autoimmune encephalomyelitis C57BL/6 mouse model assessed as appearance of normal myelin structure at 30 to 60 mg/kg, ip qd administered 6 days post immunization and measured every 3 days for 28 days post immunization by Luxol fast blue staining based bright field fluorescence microscopic analysis; assay type: functional, organism-based; details: dose 30-60 mg/kg, time 22.0 day
Mus musculus [53] = assay: as §2, with “as” for “as appearance of normal”, “density” for “structure”, “at” for “at 30 to”; assay type: functional, organism-based; details: time 22.0 day
[54] = target: T1, Bromodomain-containing protein 4; assay: Binding affinity to BRD4 BD2 (unknown origin) assessed as change in enthalpy by ITC method
[55] = target: T1, Bromodomain-containing protein 4; assay: Binding affinity to BRD4 BD2 (unknown origin) assessed as change in entropy by ITC method
[56] = target: T1, Bromodomain-containing protein 4; assay: Binding affinity to BRD4 BD2 (unknown origin) assessed as change in gibbs free energy by ITC method

Kd [1]: 480 nM | Kd [2]: 16000 nM | Selectivity ratio [3]: 34
Structure (SMILES): CCn1nc(C)c(-c2cncc(-c3ccnc4nc[nH]c34)c2)c1C

Kd [1]: 180 nM | Kd [2]: 3100 nM | Selectivity ratio [3]: 17
Structure (SMILES): Cc1nn(C)c(C)c1-c1cc2c(c(-c3ccnc4nc[nH]c34)c1)OCC2

Kd [1]: 300 nM | Kd [2]: 9300 nM | Selectivity ratio [3]: 30
Structure (SMILES): Cc1nn(CC2CCCCC2)c(C)c1-c1cncc(-c2ccnc3nc[nH]c23)c1

Structure (SMILES): Cc1nn(CC2CC2)c(C)c1-c1cncc(-c2ccnc3nc[nH]c23)c1
Kd [1]: 230 nM | Kd [2]: 14000 nM | Selectivity ratio [3]: 60 | Kd [4]: 540 nM | Kd [5]: 21000 nM | Selectivity ratio [6]: 38 | deltaH [7]: -15.6 kcal/mol | TdeltaS [8]: 7.1 kcal/mol | deltaG [9]: -8.55 kcal/mol | IC50 [10]: 176 nM | IC50 [11]: 4840 nM | IC50 [12]: 183 nM | IC50 [13]: 1940 nM | IC50 [14]: 498 nM | IC50 [15]: 2090 nM | IC50 [16]: 4750 nM | IC50 [17]: 3040 nM | Ratio IC50 [18]: 28 | Ratio IC50 [19]: 11 | Ratio IC50 [20]: 4 | Ratio IC50 [21]: 0.6 | Activity (Microglia): Active | solubility [22]: 760 µg/mL (≈ 2210 µM) | half-life [23]: 3.7 h | microsomal CLint [24]: 3.2 µL/min/mg | logD [25]: 2.31 | fraction unbound at 5 h [26]: 0.979 | fCmax [27]: 170 nM | Cmax [28]: 17.2 µM | half-life [29]: 3.56 h | MRT [30]: 4.46 h | Cmax [31]: 89.4 µM | Tmax [32]: 1 h | half-life [33]: 3.53 h | MRT [34]: 1.74 h | bioavailability [35]: 121% | Cmax [36]: 7.15 µM | Tmax [37]: 0.25 h | half-life [38]: 6.31 h | MRT [39]: 8.93 h | bioavailability [40]: 22% | Cmax [41]: 17.2 µM | Cmax [42]: 7.91 µM | Cmax [43]: 3 µM | Tmax [44]: 1 h | Tmax [45]: 1 h | Activity (Mus musculus [46]): Active | Activity (Mus musculus [47]): Active | Activity [48]: Non-Toxic | Activity [49]: Non-Toxic | Activity (Mus musculus [50]): Active | Activity (Mus musculus [51]): Active | Activity (Mus musculus [52]): Active | Activity (Mus musculus [53]): Active | deltaH [54]: -5.84 kcal/mol | TdeltaS [55]: -0.533 kcal/mol | deltaG [56]: -6.37 kcal/mol

Kd [1]: 690 nM | Kd [2]: 31000 nM | Selectivity ratio [3]: 46
Structure (SMILES): Cc1c(-c2cncc(-c3ccnc4nc[nH]c34)c2)cnn1C

Kd [1]: 2400 nM | Kd [2]: 178000 nM | Selectivity ratio [3]: 73
Structure (SMILES): Cc1c(-c2cnccc2-c2ccnc3nc[nH]c23)cnn1C
